Columns and labels:
itchgrass = experiment: Test G preemergence test; assay type: in vivo, Rottboellia cochinchinensis; conditions: scale 0 to 100
field violet = experiment: Test D preemergence test; assay type: in vivo, Viola arvensis; conditions: scale 0 to 100
Description: (§1) Seeds of plant species selected from annual bluegrass (Poa annua), blackgrass (Alopecurus myosuroides), downy bromegrass (Bromus tectorum), field violet (Viola arvensis), green foxtail (Setaria viridis), Italian ryegrass (Lolium multiflorum), littleseed canarygrass (Phalaris minor), spring wheat (Triticum aestivum), wild oat (Avena fatua), […]), winter barley (Hordeum vulgare), and winter wheat (Triticum aestivum) were planted and treated preemergence with test chemicals formulated in a non-phytotoxic solvent mixture which included a surfactant. […] A dash (-) response means no test result.

littleseed canarygrass = experiment: Test D preemergence test; assay type: in vivo, Phalaris minor; conditions: scale 0 to 100
Description: as §1

cotton = experiment: Test G preemergence test; assay type: in vivo, Gossypium hirsutum; conditions: scale 0 to 100
yellow foxtail = experiment: Test G preemergence test; assay type: in vivo, Pennisetum glaucum; conditions: scale 0 to 100
duck salad = experiment: Test B flooded paddy test; assay type: in vivo, Heteranthera limosa; conditions: Flood, 250 g ai/ha, 13 to 15 days; scale 0 to 100, 0 no effect, 100 complete control
Description: (§2) At time of treatment, test pots were flooded to 3 cm above the soil surface, treated by application of test compounds directly to the paddy water, and then maintained at that water depth for the duration of the test. Treated plants and controls were maintained in a greenhouse for 13 to 15 days, after which time all species were compared to controls and visually evaluated. […] A dash (-) response means no test result.

goosegrass = experiment: Test G preemergence test; assay type: in vivo, Eleusine indica; conditions: scale 0 to 100
tall waterhemp = experiment: Test G preemergence test; assay type: in vivo, Amaranthus tuberculatos; conditions: scale 0 to 100
blackgrass = experiment: Test D preemergence test; assay type: in vivo, Alopecurus myosuroides; conditions: scale 0 to 100
Description: as §1

winter wheat = experiment: Test D preemergence test; assay type: in vivo, Triticum aestivum; conditions: scale 0 to 100
Description: as §1

spring wheat = experiment: Test D preemergence test; assay type: in vivo, Triticum aestivum; conditions: scale 0 to 100
Description: as §1

soybean = experiment: Test G preemergence test; assay type: in vivo, Glycine max; conditions: scale 0 to 100
sorghum = experiment: Test G preemergence test; assay type: in vivo, Sorghum vulgare; conditions: scale 0 to 100
eastern black nightshade = experiment: Test G preemergence test; assay type: in vivo, Solanum ptycanthum; conditions: scale 0 to 100
large crabgrass = experiment: Test G preemergence test; assay type: in vivo, Digitaria sanguinalis; conditions: scale 0 to 100
corn = experiment: Test G preemergence test; assay type: in vivo, Zea mays; conditions: scale 0 to 100
umbrella sedge = experiment: Test B flooded paddy test; assay type: in vivo, Cyperus difformis; conditions: Flood, 250 g ai/ha, 13 to 15 days; scale 0 to 100, 0 no effect, 100 complete control
Description: as §2

annual bluegrass = experiment: Test D preemergence test; assay type: in vivo, Poa annua; conditions: scale 0 to 100
Description: as §1

yellow nutsedge = experiment: Test G preemergence test; assay type: in vivo, Cyperus esculentus; conditions: scale 0 to 100
Italian ryegrass = experiment: Test D preemergence test; assay type: in vivo, Lolium multiflorum; conditions: scale 0 to 100
Description: as §1

rice = experiment: Test B flooded paddy test; assay type: in vivo, Oryza sativa; conditions: Flood, 250 g ai/ha, 13 to 15 days; scale 0 to 100, 0 no effect, 100 complete control
Description: as §2

broadleaf signalgrass = experiment: Test G preemergence test; assay type: in vivo, Brachiaria platyphylla; conditions: scale 0 to 100
wild oat = experiment: Test D preemergence test; assay type: in vivo, Avena fatua; conditions: scale 0 to 100
Description: as §1

lambsquarters = experiment: Test G preemergence test; assay type: in vivo, Chenopodium album; conditions: scale 0 to 100
barnyardgrass = experiment: Test B flooded paddy test; assay type: in vivo, Echinochloa crus-galli; conditions: Flood, 250 g ai/ha, 13 to 15 days; scale 0 to 100, 0 no effect, 100 complete control
Description: as §2

woolly cupgrass = experiment: Test G preemergence test; assay type: in vivo, Eriochloa villosa; conditions: scale 0 to 100

In the case of `Cc1cc[n+]([O-])c([S+]([O-])Cc2c(C(F)(F)F)nn(C)c2OC(F)F)c1` (centres unmarked) [Compound 1], the “Plant response rating, Itchgrass” value (itchgrass; 31 g ai/ha) is reported as 20, the “Plant response rating, Itchgrass” value (itchgrass; 62 g ai/ha) is reported as 35 and the “Plant response rating, Itchgrass” value (itchgrass; 125 g ai/ha) is reported as 40. For the same compound, the “Plant response rating, Itchgrass” value (itchgrass; 250 g ai/ha) was 60, the “Plant response rating, Field Violet” value (field violet; 31 g ai/ha) was 20 and the “Plant response rating, Field Violet” value (field violet; 62 g ai/ha) was 20. For the same compound, the “Plant response rating, Field Violet” value (field violet; 125 g ai/ha) was 20, the “Plant response rating, Field Violet” value (field violet; 250 g ai/ha) was 75 and the “Plant response rating, Canarygrass” value (littleseed canarygrass; 31 g ai/ha) was 0. For the same compound, the “Plant response rating, Canarygrass” value (littleseed canarygrass; 62 g ai/ha) was 100, the “Plant response rating, Canarygrass” value (littleseed canarygrass; 125 g ai/ha) was 80 and the “Plant response rating, Canarygrass” value (littleseed canarygrass; 250 g ai/ha) was 100. For the same compound, the “Plant response rating, Cotton” value (cotton; 31 g ai/ha) was 0, the “Plant response rating, Cotton” value (cotton; 62 g ai/ha) was 10 and the “Plant response rating, Cotton” value (cotton; 125 g ai/ha) was 15. For the same compound, the “Plant response rating, Cotton” value (cotton; 250 g ai/ha) was 20, the “Plant response rating, Foxtail, Yellow” value (yellow foxtail; 31 g ai/ha) was 20 and the “Plant response rating, Foxtail, Yellow” value (yellow foxtail; 62 g ai/ha) was 100. For the same compound, the “Plant response rating, Foxtail, Yellow” value (yellow foxtail; 125 g ai/ha) was 100, the “Plant response rating, Foxtail, Yellow” value (yellow foxtail; 250 g ai/ha) was 100 and the “Plant response rating, Ducksalad” value (duck salad) was 90. For the same compound, the “Plant response rating, Goosegrass” value (goosegrass; 31 g ai/ha) was 70, the “Plant response rating, Goosegrass” value (goosegrass; 62 g ai/ha) was 90 and the “Plant response rating, Goosegrass” value (goosegrass; 125 g ai/ha) was 100. The “Plant response rating, Goosegrass” value (goosegrass; 250 g ai/ha) was 100, the “Plant response rating, Waterhemp” value (tall waterhemp; 31 g ai/ha) was 40 and the “Plant response rating, Waterhemp” value (tall waterhemp; 62 g ai/ha) was 100. For the same compound, the “Plant response rating, Waterhemp” value (tall waterhemp; 125 g ai/ha) was 100, the “Plant response rating, Waterhemp” value (tall waterhemp; 250 g ai/ha) was 100 and the “Plant response rating, Blackgrass” value (blackgrass; 31 g ai/ha) was 5. For the same compound, the “Plant response rating, Blackgrass” value (blackgrass; 62 g ai/ha) was 60, the “Plant response rating, Blackgrass” value (blackgrass; 125 g ai/ha) was 70 and the “Plant response rating, Blackgrass” value (blackgrass; 250 g ai/ha) was 100. For the same compound, the “Plant response rating, Wheat, Winter” value (winter wheat; 31 g ai/ha) was 0, the “Plant response rating, Wheat, Winter” value (winter wheat; 62 g ai/ha) was 5 and the “Plant response rating, Wheat, Winter” value (winter wheat; 125 g ai/ha) was 50. For the same compound, the “Plant response rating, Wheat, Winter” value (winter wheat; 250 g ai/ha) was 60, the “Plant response rating, Wheat, Spring” value (spring wheat; 31 g ai/ha) was 0 and the “Plant response rating, Wheat, Spring” value (spring wheat; 62 g ai/ha) was 0. The “Plant response rating, Wheat, Spring” value (spring wheat; 125 g ai/ha) was 30, the “Plant response rating, Wheat, Spring” value (spring wheat; 250 g ai/ha) was 45 and the “Plant response rating, Soybean” value (soybean; 31 g ai/ha) was 0. The “Plant response rating, Soybean” value (soybean; 62 g ai/ha) was 20, the “Plant response rating, Soybean” value (soybean; 125 g ai/ha) was 20 and the “Plant response rating, Soybean” value (soybean; 250 g ai/ha) was 25. The “Plant response rating, Sorghum” value (sorghum; 31 g ai/ha) was 0, the “Plant response rating, Sorghum” value (sorghum; 62 g ai/ha) was 0 and the “Plant response rating, Sorghum” value (sorghum; 125 g ai/ha) was 40. The “Plant response rating, Sorghum” value (sorghum; 250 g ai/ha) was 50, the “Plant response rating, Nightshade” value (eastern black nightshade; 31 g ai/ha) was 0 and the “Plant response rating, Nightshade” value (eastern black nightshade; 62 g ai/ha) was 30. The “Plant response rating, Nightshade” value (eastern black nightshade; 125 g ai/ha) was 100, the “Plant response rating, Nightshade” value (eastern black nightshade; 250 g ai/ha) was 100 and the “Plant response rating, Crabgrass, Large” value (large crabgrass; 31 g ai/ha) was 10. For the same compound, the “Plant response rating, Crabgrass, Large” value (large crabgrass; 62 g ai/ha) was 100, the “Plant response rating, Crabgrass, Large” value (large crabgrass; 125 g ai/ha) was 100 and the “Plant response rating, Crabgrass, Large” value (large crabgrass; 250 g ai/ha) was 100. The “Plant response rating, Corn” value (corn; 31 g ai/ha) was 0, the “Plant response rating, Corn” value (corn; 62 g ai/ha) was 5 and the “Plant response rating, Corn” value (corn; 125 g ai/ha) was 10. For the same compound, the “Plant response rating, Corn” value (corn; 250 g ai/ha) was 45, the “Plant response rating, Umbrella Sedge” value (umbrella sedge) was 100 and the “Plant response rating, Bluegrass” value (annual bluegrass; 31 g ai/ha) was 0. The “Plant response rating, Bluegrass” value (annual bluegrass; 62 g ai/ha) was 75, the “Plant response rating, Bluegrass” value (annual bluegrass; 125 g ai/ha) was 90 and the “Plant response rating, Bluegrass” value (annual bluegrass; 250 g ai/ha) was 100. For the same compound, the “Plant response rating, Nutsedge, Yellow” value (yellow nutsedge; 31 g ai/ha) was 0, the “Plant response rating, Nutsedge, Yellow” value (yellow nutsedge; 62 g ai/ha) was 35 and the “Plant response rating, Nutsedge, Yellow” value (yellow nutsedge; 125 g ai/ha) was 75. For the same compound, the “Plant response rating, Nutsedge, Yellow” value (yellow nutsedge; 250 g ai/ha) was 40, the “Plant response rating, Ryegrass, Italian” value (Italian ryegrass; 31 g ai/ha) was 0 and the “Plant response rating, Ryegrass, Italian” value (Italian ryegrass; 62 g ai/ha) was 20. The “Plant response rating, Ryegrass, Italian” value (Italian ryegrass; 125 g ai/ha) was 30, the “Plant response rating, Ryegrass, Italian” value (Italian ryegrass; 250 g ai/ha) was 95 and the “Plant response rating, Rice, Transplanted” value (rice) was 80. The “Plant response rating, Signalgrass” value (broadleaf signalgrass; 31 g ai/ha) was 20, the “Plant response rating, Signalgrass” value (broadleaf signalgrass; 62 g ai/ha) was 70 and the “Plant response rating, Signalgrass” value (broadleaf signalgrass; 125 g ai/ha) was 70. For the same compound, the “Plant response rating, Signalgrass” value (broadleaf signalgrass; 250 g ai/ha) was 100, the “Plant response rating, Oat, Wild” value (wild oat; 31 g ai/ha) was 0 and the “Plant response rating, Oat, Wild” value (wild oat; 62 g ai/ha) was 0. For the same compound, the “Plant response rating, Oat, Wild” value (wild oat; 125 g ai/ha) was 20, the “Plant response rating, Oat, Wild” value (wild oat; 250 g ai/ha) was 40 and the “Plant response rating, Lambsquarters” value (lambsquarters; 31 g ai/ha) was 0. The “Plant response rating, Lambsquarters” value (lambsquarters; 62 g ai/ha) was 100, the “Plant response rating, Lambsquarters” value (lambsquarters; 125 g ai/ha) was 100 and the “Plant response rating, Lambsquarters” value (lambsquarters; 250 g ai/ha) was 100. For the same compound, the “Plant response rating, Barnyardgrass” value (barnyardgrass) was 80, the “Plant response rating, Cupgrass, Woolly” value (woolly cupgrass; 31 g ai/ha) was 30 and the “Plant response rating, Cupgrass, Woolly” value (woolly cupgrass; 62 g ai/ha) was 70. For the same compound, the “Plant response rating, Cupgrass, Woolly” value (woolly cupgrass; 125 g ai/ha) was 50 and the “Plant response rating, Cupgrass, Woolly” value (woolly cupgrass; 250 g ai/ha) was 100.
